In US11667668B2, “Compositions and methods for treating CNS disorders” (Sage Therapeutics, Inc., priority 2017, dated 2023):

Biological target: rat brain cortical membranes ([35S]-TBPS binding; GABAA receptor)
Test: Steroid inhibition of [35S]-TBPS binding
Conditions: 3 nM [35S]-TBPS, in the presence of 5 mM GABA, 90 min at room temp
Protocol: [35S]-t-Butylbicyclophosphorothionate (TBPS) binding assays using rat brain cortical membranes in the presence of 5 mM GABA has been described (Gee et al, J. Pharmacol. Exp. Ther. 1987, 241, 346-353; Hawkinson et al, Mol. Pharmacol. 1994, 46, 977-985; Lewin, A. H et al., Mol. Pharmacol. 1989, 35, 189-194).
Briefly, cortices are rapidly removed following decapitation of carbon dioxide-anesthetized Sprague-Dawley rats (200-250 g). The cortices are homogenized in 10 volumes of ice-cold 0.32 M sucrose using a glass/teflon homogenizer and centrifuged at 1500×g for 10 min at 4° C. The resultant supernatants are centrifuged at 10,000×g for 20 min at 4° C. to obtain the P2 pellets. The P2 pellets are resuspended in 200 mM NaCl/50 mM Na—K phosphate pH 7.4 buffer and centrifuged at 10,000×g for 10 min at 4° C. This washing procedure is repeated twice and the pellets are resuspended in 10 volumes of buffer. Aliquots ([…]) of the membrane suspensions are incubated with 3 nM [35S]-TBPS and 5 mL aliquots of test drug dissolved in dimethyl sulfoxide (DMSO) (final 0.5%) in the presence of 5 mM GABA. The incubation is brought to a final volume of 1.0 mL with buffer. Nonspecific binding is determined in the presence of […] and ranged from 15 to 25%. […] Filter bound radioactivity is measured by liquid scintillation spectrometry. […]

Row | Compound | IC50 [nM]
1 | [2H]C([2H])([2H])[C@@]1(O)CC[C@H]2[C@H](CC[C@@H]3[C@@H]2CC[C@]2(C)[C@@H](C(=O)Cn4cc(C#N)cn4)CC[C@@H]32)C1 [Compound 1, 1-(2-((3R,5R,8R,9R,10S,13S,14S,17S)-3-hydroxy-13-methyl-3-(methyl-d3)hexadecahydro-1H-cyclopenta[a]phenanthren-17-yl)-2-oxoethyl)-1H-pyrazole-4-carbonitrile] | < 10
2 | [2H][C@]1(C(=O)Cn2cc(C#N)cn2)CC[C@H]2[C@@H]3CC[C@@H]4C[C@](C)(O)CC[C@@H]4[C@H]3CC[C@@]21C [Compound A10, 1-(2-((3R,5R,8R,9R,10S,13S,14S,17S)-3-hydroxy-3,13-dimethylhexadecahydro-1H-cyclopenta[a]phenanthren-17-yl-17-d)-2-oxoethyl)-1H-pyrazole-4-carbonitrile] | < 10
